Peptide text beside a SMILES is read from it. * marks the point of attachment. Cbz = O=C(OCc1ccccc1)*
Tests used:
Akt = test: Western blot of Hsp90 client protein Akt in Panc-1 cells; format: cell-based, human; conditions: for level of Akt protein: 10 μM proteasome inhibitor, 24 h
Protocol: (§1) The levels of Akt and Cdk4, two well-known Hsp90 clients, were measured. Celastrol decreased the protein levels of Akt and Cdk4 in a concentration- and time-dependent manner.
(§2) Western Blot. The general procedure for the Western blot analysis was briefly described as follows. After drug treatment, cells were washed twice with ice-cold phosphate-buffered saline (PBS), scraped into lysis buffer (20 mM Tris, pH 7.5, 1% Nonidet P-40, 150 mM NaCl, 5 mM EDTA, 1 mM Na3VO4) supplemented with a protease inhibitor mixture (Sigma, added at a 1:100 dilution), and incubated on ice for 20 min. The lysate was then centrifuged at 14,000×g for 10 min. Equal amounts of total protein were subjected to SDS-PAGE and transferred onto nitrocellulose membranes and probed with appropriate antibodies.

Cdk4 = test: Western blot of Hsp90 client protein Cdk4 in Panc-1 cells; format: cell-based, human; conditions: for level of Cdk4 protein: 10 μM proteasome inhibitor, 24 h
Protocol: as §1, §2

Hsp90 = test: Western blot of Hsp90 protein levels; format: cell-based, human
Protocol: as §2

Panc-1 xenograft tumor = test: Panc-1 xenograft mouse model; format: in vivo, mice; conditions: 3 mg/kg i.p.; for inhibition of tumor growth: after the last injection
Protocol: After the last injection, celastrol inhibited 80% of tumor growth (p<0.001) (FIG. 6A).
Xenograft Mouse Model. 4 to 6-week old nu/nu athymic female mice were obtained from Charles River Laboratories (Charles River, Wilmington, Mass.). The human Panc-1 cells (5-10×10^6) were mixed with reconstituted basement membrane (Collaborative Research, Bedford, Mass.) and implanted to the right and left flanks of the mice. Tumor volumes were calculated with the formula: width^2×length/2. When tumors reached 100 mm^3, animals were randomized into different groups for treatment (n=6/group).
Then, the dosing schedule was changed to one injection per three days. Tumor sizes and body weights were measured twice a week.

Panc-1 cells = test: MTS assay; conditions: read-out: IC50 (cytotoxicity, MTS), 24 h
Protocol: MTS Assay. The human Panc-1 cells were seeded in 96-well plates at a density of 3000-5000 cells per well. […] Number of viable cells was assessed by MTS assay after 24 h. The IC50 values for cytotoxicity were calculated with WinNonlin software (Pharsight, Mountain View, Calif.).

[1] = test system: RIP1-Tag2 transgenic pancreatic cancer mouse model; test: RIP1-Tag2 transgenic pancreatic cancer mouse model; format: in vivo, mice
Text: To further evaluate the anticancer efficacy of celastrol against pancreatic cancer, the inventors utilized celastrol to inhibit tumor growth in a RIP1-Tag2 transgenic pancreatic cancer mouse model. In this mouse model, hyperplastic islets begin to appear by 3-4 weeks of age, and solid tumors emerge in pancreas at about 8-9 weeks. The cancer will metastasized into other sites such as mesenterium in the peritoneal cavity from 10-12 weeks.
RIP1-Tag2 Transgenic Mouse Model. RIP1-Tag2 transgenic mice used contained the insulin promoter-driven SV40 T-antigen and produced spontaneous multifold and multistage pancreatic islet tumors. RIP1-Tag2 positive mice were identified by PCR analysis of genomic DNA from tail biopsy. […] After 4 weeks of injection, mice of each group were sacrificed by CO2 and tumors were isolated and saved. The remaining mice were kept to calculate the survival rate.

[2] = 3 mg/kg i.p. once every 3 days for four weeks, at 12th week

SMILES | level of Akt protein (Akt) | level of Cdk4 protein (Cdk4) | IC50 (Panc-1 cells) [µM] | survival increase over control ([1]; 3 mg/kg i.p.) [days] | decrease of tumors in pancreas compared to the control group [1, 2] [%] | also measured
CC(C)C[C@@H](C=O)NC(=O)[C@H](CC(C)C)NC(=O)[C@H](CC(C)C)NC(=O)OCc1ccccc1 [MG132] (Cbz-Leu-Leu-Leu-aldehyde) | did not change the levels | did not change the levels | – | – | – | –
CC1=C(O)C(=O)C=C2C1=CC=C1[C@@]2(C)CC[C@@]2(C)[C@@H]3C[C@](C)(C(=O)O)CC[C@]3(C)CC[C@]12C [celastrol, (9b,13a,14b,20a)-3-Hydroxy-9,13-dimethyl-2-oxo-24,25,26-trinoroleana-1(10),3,5,7-tertraen-29-oic acid] | – | – | 3 | 12 | 30 | decrease of Akt protein level (Akt; 5 μM, 24-h treatment): 80%; effect on Hsp90 protein levels (Hsp90): no effect; inhibition of tumor growth (Panc-1 xenograft tumor): 80%; inhibition of tumor growth (Panc-1 xenograft tumor; listed as Celastrol): more than 80%; weight loss in mice (Panc-1 xenograft tumor; xenograft mice): 5%; decrease of Cdk4 protein level (Cdk4; 5 μM, 24-h treatment): 70%; median survival time ([1]; 3 mg/kg i.p.): 96 days; weight loss ([1]; 3 mg/kg i.p., RIP1-Tag2 mice): about 10%
COC1=C2C[C@@H](C)C[C@H](OC)[C@H](O)[C@@H](C)/C=C(\C)[C@H](OC(N)=O)[C@@H](OC)/C=C\C=C(/C)C(=O)NC(=CC1=O)C2=O [geldanamycin, reference compound] | – | – | 8 | 6 | 13 | decrease of metastatic tumors in mesenterium compared to the control group [1, 2]: 50%
CC(=O)N[C@@H](CSC(=O)[C@]1([C@@H](O)C(C)C)NC(=O)[C@H](C)[C@@H]1O)C(=O)O [lactacystin] | did not change the levels | did not change the levels | – | – | – | –

From patent US20100249231A1, “HSP90 Inhibitors of Protein-Protein Interaction HSP90 Chaperone Complexes and Therapeutic Uses Thereof” (THE OHIO STATE UNIVERSITY RESEARCH FOUNDATION, priority 2007, published 2010)
